Results reported in ChEMBL document CHEMBL1201862, “PubChem BioAssay data set” (2004).
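All cell lines were grown in 96-well plates and treated with compound for 48 hours. GI50 marks 50% less growth.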 Activity calls are given as the source filed them. Cut-off read from the data, not from the text of the source: active = GI50 up to about 1.1 µM and inactive = higher. Positions of bridges follow the written chain, without caps; N, C: chain ends. Non-standard residues stand in square brackets, D forms with d. Residues, ends and D or L forms follow the SMILES beside them. *: point of attachment. PhAc = O=C(Cc1ccccc1)*

Legend:
Assay in all cases: NCI anticancer screen, dose series, 48 h
ACHN = tested on: ACHN
CAKI-1 = tested on: CAKI-1
DU-145 = tested on: DU-145
HCT-116 = tested on: HCT-116
HCT-15 = tested on: HCT-15
HL-60 = tested on: HL-60
MDA-MB-231 = tested on: MDA-MB-231
MDA-MB-435 = tested on: MDA-MB-435
MDA-N = tested on: MDA-N
Malme-3M = tested on: Malme-3M
OVCAR-5 = tested on: OVCAR-5
RPMI-8226 = tested on: RPMI-8226
SNB-75 = tested on: SNB-75
SR = tested on: SR
SW-620 = tested on: SW-620
U-251 = tested on: U-251
NCI-H522 = tested on: NCI-H522
OVCAR-4 = tested on: OVCAR-4
SK-MEL-2 = tested on: SK-MEL-2
HCC 2998 = tested on: HCC 2998

Row | Compound | GI50 (ACHN) | GI50 (CAKI-1) | GI50 (DU-145) | GI50 (HCT-116) | GI50 (HCT-15) [µM] | GI50 (HL-60) | GI50 (MDA-MB-231) | GI50 (MDA-MB-435) | GI50 (MDA-N) | GI50 (Malme-3M) | GI50 (OVCAR-5) | GI50 (RPMI-8226) | GI50 (SNB-75) | GI50 (SR) | GI50 (SW-620) | GI50 (U-251) | GI50 (NCI-H522) | GI50 (OVCAR-4) | GI50 (SK-MEL-2) | GI50 (HCC 2998)
1 | CC1=C(C)Cc2c(O)ccc(O)c2C1 | 17.4 µM (inactive) | 18.2 µM (inactive) | 20.1 µM (inactive) | 15.9 µM (inactive) | 17.5 | 5.36 µM (inactive) | 18 µM (inactive) | 16.8 µM (inactive) | 17 µM (inactive) | 17.5 µM (inactive) | 20.7 µM (inactive) | 6 µM (inactive) | 16.2 µM (inactive) | 12.6 µM (inactive) | 18.3 µM (inactive) | 16.6 µM (inactive) |  |  |  | 
2 | COC(=O)[C@@H]1CC(C(CN)c2cn(C(=O)OC(C)(C)C)c3ccccc23)C(=O)N1C(=O)OC(C)(C)C (some centres not stated) | 29.3 µM (inactive) | 29.2 µM (inactive) | 44.2 µM (inactive) | 44.3 µM (inactive) | 28.1 | 21.8 µM (inactive) | 22.4 µM (inactive) | 21.5 µM (inactive) | 20 µM (inactive) | 22.2 µM (inactive) | 27.2 µM (inactive) | 10.6 µM (inactive) | 6.31 µM (inactive) | 23.1 µM (inactive) | 50.7 µM (inactive) | 38.9 µM (inactive) | 22.5 µM (inactive) | 20.9 µM (inactive) | 22.4 µM (inactive) | 
3 | COc1cc2ccnc3c2c(c1OC)N(C)C=C3 | 16.1 µM (inactive) | 21.3 µM (inactive) | 34.5 µM (inactive) | 11 µM (inactive) | 26.9 |  | 29.1 µM (inactive) | 31.5 µM (inactive) | 19.1 µM (inactive) |  | 33 µM (inactive) | 24.4 µM (inactive) | 33.6 µM (inactive) | 21.3 µM (inactive) | 29.6 µM (inactive) | 35.2 µM (inactive) |  | 24.5 µM (inactive) | 23.1 µM (inactive) | 16.4 µM (inactive)
4 | O=C1C=CC(=O)[C@H]2C3C=CC(C4C3C3(Cl)C(Cl)=C(Cl)[C@]4(Cl)C3(Cl)Cl)[C@@H]12 (some centres not stated) | 8.55 µM (inactive) | 11.5 µM (inactive) | 8.97 µM (inactive) | 3.61 µM (inactive) | 4.11 | 1.57 µM (inactive) | 4.45 µM (inactive) | 2.51 µM (inactive) | 4.52 µM (inactive) | 10.6 µM (inactive) | 7.46 µM (inactive) | 3.3 µM (inactive) | 12.2 µM (inactive) | 1.66 µM (inactive) | 9.57 µM (inactive) | 3.46 µM (inactive) | 11 µM (inactive) | 4.4 µM (inactive) | 7.76 µM (inactive) | 
5 | CC(=O)Nc1ccc(/C=C/[N+](=O)[O-])cc1 | 3.42 µM (inactive) | 0.573 µM (active) | 5.11 µM (inactive) | 2.42 µM (inactive) | 2.33 | 2.84 µM (inactive) | 1.81 µM (inactive) | 2.82 µM (inactive) | 2.24 µM (inactive) | 3.29 µM (inactive) | 2.58 µM (inactive) | 1.66 µM (inactive) | 1.5 µM (inactive) | 0.404 µM (active) | 2.64 µM (inactive) | 3.15 µM (inactive) | 0.24 µM (active) | 2.9 µM (inactive) | 9.66 µM (inactive) | 
6 | O=C(Cc1ccccc1)N[C@@H]1COC(=O)[C@@H]2CCCN2C(=O)[C@@H]2CCCN2C1=O (PhAc-[dS]-Pro-Pro; ester 1-C) | > 100 µM (inactive) | > 100 µM (inactive) | > 100 µM (inactive) | > 100 µM (inactive) | > 100 | > 100 µM (inactive) | > 100 µM (inactive) | > 100 µM (inactive) | > 100 µM (inactive) | > 100 µM (inactive) | > 100 µM (inactive) |  | 0.0254 µM (active) | > 100 µM (inactive) | > 100 µM (inactive) |  |  | > 100 µM (inactive) | > 100 µM (inactive) | > 100 µM (inactive)
